Source: US6358885B1, “Substituted phenylheterocyclic herbicides” (Mississippi State University, priority 1992, dated 2002)

Key:
Assay in all cases: Test F preemergence/postemergence greenhouse plant response rating 0 to 100
Details in all cases: 0 to 100 scale
wild radish = assay type: in vivo, Raphanus raphanistrum
Description: (§1) Compounds evaluated in this test were formulated in a non-phytoxic solvent and applied to the soil surface before plant seedlings emerged (preemergence application) and to plants that were in the one-to-four leaf stage (postemergence application). A sandy loam soil was used for the preemergence test while a mixture of sandy loam soil and greenhouse potting mix in a 60:40 ratio was used for the postemergence test. Test compounds were applied within approximately one day after planting seeds for the preemergence test. Plantings of these crops and weed species were adjusted to produce plants of appropriate size for the postemergence test. All plant species were grown using normal greenhouse practices. Crop and weed species include winter barley (Hordeum vulgare cv. ‘Igri’), blackgrass (Alopecurus myosuroides), chickweed (Stellaria media), downy brome (Bromus tectorum), field violet (Viola arvensis), galium (Galium aparine), green foxtail (Setaria viridis), kochia (Kochia scoparia), lambsquarters (Chenopodium album), speedwell (Veronica persica), rape (Brassica napus), ryegrass (Lolium multiflorum), sugar beet (Beta vulgaris cv. ‘USl’), sunflower (Helianthus annuus cv. ‘Russian Giant’), spring wheat (Triticum aestivum cv. ‘ERA’), winter wheat (Triticum aestivum cv. ‘Talent’), wild buckwheat (Polygonum convolvulus), wild mustard (Sinapis arvensis), wild oat (Avena fatua), and wild radish (Raphanus raphanistrum). Blackgrass, galium and wild oat were treated at two growth stages. […] Treated plants and untreated controls were maintained in a greenhouse for approximately 21 to 28 days, after which all treated plants were compared to untreated controls and visually evaluated. […] A dash response (-) means no test result.

chickweed = assay type: in vivo, Stellaria media
Description: as §1

kochia = assay type: in vivo, Kochia scoparia
Description: as §1

winter barley = assay type: in vivo, Hordeum vulgare cv. ‘Igri’
Description: as §1

field violet = assay type: in vivo, Viola arvensis
Description: as §1

wild mustard = assay type: in vivo, Sinapis arvensis
Description: as §1

green foxtail = assay type: in vivo, Setaria viridis
Description: as §1

C#CCOc1cc(-c2nn3c(c2Br)CCCC3)c(F)cc1Cl [Compound 26]
Wild radish plant response rating (wild radish; POSTEMERGENCE, Rate 4 g/ha): 0 | Wild radish plant response rating (wild radish; POSTEMERGENCE, Rate 8 g/ha): 20 | Wild radish plant response rating (wild radish; POSTEMERGENCE, Rate 16 g/ha): 60 | Wild radish plant response rating (wild radish; POSTEMERGENCE, Rate 32 g/ha): 60 | Wild radish plant response rating (wild radish; POSTEMERGENCE, Rate 64 g/ha): 60 | Wild radish plant response rating (wild radish; POSTEMERGENCE, Rate 125 g/ha): 60 | Wild radish plant response rating (wild radish; POSTEMERGENCE, Rate 250 g/ha): 60 | Wild radish plant response rating (wild radish; PREEMERGENCE, Rate 4 g/ha): 0 | Wild radish plant response rating (wild radish; PREEMERGENCE, Rate 8 g/ha): 0 | Wild radish plant response rating (wild radish; PREEMERGENCE, Rate 16 g/ha): 0 | Wild radish plant response rating (wild radish; PREEMERGENCE, Rate 32 g/ha): 0 | Wild radish plant response rating (wild radish; PREEMERGENCE, Rate 64 g/ha): 40 | Wild radish plant response rating (wild radish; PREEMERGENCE, Rate 125 g/ha): 70 | Wild radish plant response rating (wild radish; PREEMERGENCE, Rate 250 g/ha): 100 | Chickweed plant response rating (chickweed; POSTEMERGENCE, Rate 4 g/ha): 30 | Chickweed plant response rating (chickweed; POSTEMERGENCE, Rate 8 g/ha): 40 | Chickweed plant response rating (chickweed; POSTEMERGENCE, Rate 16 g/ha): 100 | Chickweed plant response rating (chickweed; POSTEMERGENCE, Rate 32 g/ha): 90 | Chickweed plant response rating (chickweed; POSTEMERGENCE, Rate 64 g/ha): 100 | Chickweed plant response rating (chickweed; POSTEMERGENCE, Rate 125 g/ha): 100 | Chickweed plant response rating (chickweed; POSTEMERGENCE, Rate 250 g/ha): 100 | Chickweed plant response rating (chickweed; PREEMERGENCE, Rate 4 g/ha): 0 | Chickweed plant response rating (chickweed; PREEMERGENCE, Rate 8 g/ha): 0 | Chickweed plant response rating (chickweed; PREEMERGENCE, Rate 16 g/ha): 45 | Chickweed plant response rating (chickweed; PREEMERGENCE, Rate 32 g/ha): 50 | Chickweed plant response rating (chickweed; PREEMERGENCE, Rate 64 g/ha): 100 | Chickweed plant response rating (chickweed; PREEMERGENCE, Rate 125 g/ha): 100 | Chickweed plant response rating (chickweed; PREEMERGENCE, Rate 250 g/ha): 100 | Kochia plant response rating (kochia; POSTEMERGENCE, Rate 4 g/ha): 100 | Kochia plant response rating (kochia; POSTEMERGENCE, Rate 8 g/ha): 100 | Kochia plant response rating (kochia; POSTEMERGENCE, Rate 16 g/ha): 100 | Kochia plant response rating (kochia; POSTEMERGENCE, Rate 32 g/ha): 100 | Kochia plant response rating (kochia; POSTEMERGENCE, Rate 64 g/ha): 100 | Kochia plant response rating (kochia; POSTEMERGENCE, Rate 125 g/ha): 100 | Kochia plant response rating (kochia; POSTEMERGENCE, Rate 250 g/ha): 100 | Kochia plant response rating (kochia; PREEMERGENCE, Rate 4 g/ha): 0 | Kochia plant response rating (kochia; PREEMERGENCE, Rate 8 g/ha): 0 | Kochia plant response rating (kochia; PREEMERGENCE, Rate 16 g/ha): 80 | Kochia plant response rating (kochia; PREEMERGENCE, Rate 32 g/ha): 80 | Kochia plant response rating (kochia; PREEMERGENCE, Rate 64 g/ha): 100 | Kochia plant response rating (kochia; PREEMERGENCE, Rate 125 g/ha): 100 | Winter Barley plant response rating (winter barley; POSTEMERGENCE, Rate 4 g/ha): 0 | Winter Barley plant response rating (winter barley; POSTEMERGENCE, Rate 8 g/ha): 0 | Winter Barley plant response rating (winter barley; POSTEMERGENCE, Rate 16 g/ha): 0 | Winter Barley plant response rating (winter barley; POSTEMERGENCE, Rate 32 g/ha): 20 | Winter Barley plant response rating (winter barley; POSTEMERGENCE, Rate 64 g/ha): 30 | Winter Barley plant response rating (winter barley; POSTEMERGENCE, Rate 125 g/ha): 30 | Winter Barley plant response rating (winter barley; POSTEMERGENCE, Rate 250 g/ha): 30 | Winter Barley plant response rating (winter barley; PREEMERGENCE, Rate 4 g/ha): 0 | Winter Barley plant response rating (winter barley; PREEMERGENCE, Rate 8 g/ha): 0 | Winter Barley plant response rating (winter barley; PREEMERGENCE, Rate 16 g/ha): 0 | Winter Barley plant response rating (winter barley; PREEMERGENCE, Rate 32 g/ha): 0 | Winter Barley plant response rating (winter barley; PREEMERGENCE, Rate 64 g/ha): 0 | Winter Barley plant response rating (winter barley; PREEMERGENCE, Rate 125 g/ha): 15 | Winter Barley plant response rating (winter barley; PREEMERGENCE, Rate 250 g/ha): 20 | Field violet plant response rating (field violet; POSTEMERGENCE, Rate 4 g/ha): 100 | Field violet plant response rating (field violet; POSTEMERGENCE, Rate 8 g/ha): 100 | Field violet plant response rating (field violet; POSTEMERGENCE, Rate 16 g/ha): 100 | Field violet plant response rating (field violet; POSTEMERGENCE, Rate 32 g/ha): 100 | Field violet plant response rating (field violet; POSTEMERGENCE, Rate 64 g/ha): 100 | Field violet plant response rating (field violet; POSTEMERGENCE, Rate 125 g/ha): 100 | Field violet plant response rating (field violet; POSTEMERGENCE, Rate 250 g/ha): 100 | Field violet plant response rating (field violet; PREEMERGENCE, Rate 4 g/ha): 0 | Field violet plant response rating (field violet; PREEMERGENCE, Rate 8 g/ha): 0 | Field violet plant response rating (field violet; PREEMERGENCE, Rate 16 g/ha): 70 | Field violet plant response rating (field violet; PREEMERGENCE, Rate 32 g/ha): 100 | Field violet plant response rating (field violet; PREEMERGENCE, Rate 64 g/ha): 100 | Field violet plant response rating (field violet; PREEMERGENCE, Rate 125 g/ha): 100 | Field violet plant response rating (field violet; PREEMERGENCE, Rate 250 g/ha): 100 | Wild mustard plant response rating (wild mustard; POSTEMERGENCE, Rate 4 g/ha): 70 | Wild mustard plant response rating (wild mustard; POSTEMERGENCE, Rate 8 g/ha): 70 | Wild mustard plant response rating (wild mustard; POSTEMERGENCE, Rate 16 g/ha): 100 | Wild mustard plant response rating (wild mustard; POSTEMERGENCE, Rate 32 g/ha): 100 | Wild mustard plant response rating (wild mustard; POSTEMERGENCE, Rate 64 g/ha): 100 | Wild mustard plant response rating (wild mustard; POSTEMERGENCE, Rate 125 g/ha): 100 | Wild mustard plant response rating (wild mustard; POSTEMERGENCE, Rate 250 g/ha): 100 | Wild mustard plant response rating (wild mustard; PREEMERGENCE, Rate 4 g/ha): 0 | Wild mustard plant response rating (wild mustard; PREEMERGENCE, Rate 8 g/ha): 0 | Wild mustard plant response rating (wild mustard; PREEMERGENCE, Rate 16 g/ha): 40 | Wild mustard plant response rating (wild mustard; PREEMERGENCE, Rate 32 g/ha): 50 | Wild mustard plant response rating (wild mustard; PREEMERGENCE, Rate 64 g/ha): 80 | Wild mustard plant response rating (wild mustard; PREEMERGENCE, Rate 125 g/ha): 70 | Green foxtail plant response rating (green foxtail; POSTEMERGENCE, Rate 4 g/ha): 0 | Green foxtail plant response rating (green foxtail; POSTEMERGENCE, Rate 8 g/ha): 0 | Green foxtail plant response rating (green foxtail; POSTEMERGENCE, Rate 16 g/ha): 50 | Green foxtail plant response rating (green foxtail; POSTEMERGENCE, Rate 32 g/ha): 60 | Green foxtail plant response rating (green foxtail; POSTEMERGENCE, Rate 64 g/ha): 70 | Green foxtail plant response rating (green foxtail; POSTEMERGENCE, Rate 125 g/ha): 80 | Green foxtail plant response rating (green foxtail; POSTEMERGENCE, Rate 250 g/ha): 50 | Green foxtail plant response rating (green foxtail; PREEMERGENCE, Rate 4 g/ha): 0 | Green foxtail plant response rating (green foxtail; PREEMERGENCE, Rate 8 g/ha): 0 | Green foxtail plant response rating (green foxtail; PREEMERGENCE, Rate 16 g/ha): 20 | Green foxtail plant response rating (green foxtail; PREEMERGENCE, Rate 32 g/ha): 50 | Green foxtail plant response rating (green foxtail; PREEMERGENCE, Rate 64 g/ha): 100 | Green foxtail plant response rating (green foxtail; PREEMERGENCE, Rate 125 g/ha): 100 | Green foxtail plant response rating (green foxtail; PREEMERGENCE, Rate 250 g/ha): 100

CCOC(=O)COc1cc(-c2nn3c(c2Cl)CCCC3)c(F)cc1Cl [Compound 42]
Wild radish plant response rating (wild radish; POSTEMERGENCE, Rate 2 g/ha): 0 | Wild radish plant response rating (wild radish; POSTEMERGENCE, Rate 4 g/ha): 0 | Wild radish plant response rating (wild radish; POSTEMERGENCE, Rate 8 g/ha): 10 | Wild radish plant response rating (wild radish; POSTEMERGENCE, Rate 16 g/ha): 20 | Wild radish plant response rating (wild radish; POSTEMERGENCE, Rate 32 g/ha): 20 | Chickweed plant response rating (chickweed; POSTEMERGENCE, Rate 2 g/ha): 0 | Chickweed plant response rating (chickweed; POSTEMERGENCE, Rate 4 g/ha): 0 | Chickweed plant response rating (chickweed; POSTEMERGENCE, Rate 8 g/ha): 0 | Chickweed plant response rating (chickweed; POSTEMERGENCE, Rate 16 g/ha): 0 | Chickweed plant response rating (chickweed; POSTEMERGENCE, Rate 32 g/ha): 0 | Kochia plant response rating (kochia; POSTEMERGENCE, Rate 2 g/ha): 75 | Kochia plant response rating (kochia; POSTEMERGENCE, Rate 4 g/ha): 80 | Kochia plant response rating (kochia; POSTEMERGENCE, Rate 8 g/ha): 80 | Kochia plant response rating (kochia; POSTEMERGENCE, Rate 16 g/ha): 100 | Kochia plant response rating (kochia; POSTEMERGENCE, Rate 32 g/ha): 100 | Winter Barley plant response rating (winter barley; POSTEMERGENCE, Rate 2 g/ha): 10 | Winter Barley plant response rating (winter barley; POSTEMERGENCE, Rate 4 g/ha): 10 | Winter Barley plant response rating (winter barley; POSTEMERGENCE, Rate 8 g/ha): 10 | Winter Barley plant response rating (winter barley; POSTEMERGENCE, Rate 16 g/ha): 10 | Winter Barley plant response rating (winter barley; POSTEMERGENCE, Rate 32 g/ha): 10 | Field violet plant response rating (field violet; POSTEMERGENCE, Rate 2 g/ha): 0 | Field violet plant response rating (field violet; POSTEMERGENCE, Rate 4 g/ha): 0 | Field violet plant response rating (field violet; POSTEMERGENCE, Rate 8 g/ha): 10 | Field violet plant response rating (field violet; POSTEMERGENCE, Rate 16 g/ha): 70 | Field violet plant response rating (field violet; POSTEMERGENCE, Rate 32 g/ha): 80 | Wild mustard plant response rating (wild mustard; POSTEMERGENCE, Rate 2 g/ha): 40 | Wild mustard plant response rating (wild mustard; POSTEMERGENCE, Rate 4 g/ha): 100 | Wild mustard plant response rating (wild mustard; POSTEMERGENCE, Rate 16 g/ha): 100 | Wild mustard plant response rating (wild mustard; POSTEMERGENCE, Rate 32 g/ha): 100 | Green foxtail plant response rating (green foxtail; POSTEMERGENCE, Rate 2 g/ha): 0 | Green foxtail plant response rating (green foxtail; POSTEMERGENCE, Rate 4 g/ha): 0 | Green foxtail plant response rating (green foxtail; POSTEMERGENCE, Rate 8 g/ha): 0 | Green foxtail plant response rating (green foxtail; POSTEMERGENCE, Rate 16 g/ha): 10 | Green foxtail plant response rating (green foxtail; POSTEMERGENCE, Rate 32 g/ha): 60
